Assay results: US10485235B2, “Aryloxypyrimidinyl ethers as herbicides” (FMC Corporation, priority 2015, dated 2019)

Columns and labels:
Assay type in all cases: in vivo
[1] = test system: barnyardgrass (Echinochloa crus-galli); assay: Test A preemergence, barnyardgrass; conditions: Preemergence, 0 to 100 scale (0 no effect, 100 complete control)
Outline: (§1)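 Visual injury rating versus untreated controls on a 0 to 100 scale (0 = no effect, 100 = complete control), taken about 10 days after treatment in the greenhouse. Preemergence: directed soil spray over seeded loam–sand. Postemergence: spray on one- to two-leaf plants, 2 to 10 cm tall.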

[2] = test system: kochia (Kochia scoparia); assay: Test A preemergence, kochia; conditions: Preemergence, 0 to 100 scale (0 no effect, 100 complete control)
Outline: as §1

[3] = test system: ragweed (common ragweed, Ambrosia elatior); assay: Test A preemergence, ragweed; conditions: Preemergence, 0 to 100 scale (0 no effect, 100 complete control)
Outline: as §1

[4] = test system: ryegrass, Italian (Italian ryegrass, Lolium multiflorum); assay: Test A preemergence, Italian ryegrass; conditions: Preemergence, 0 to 100 scale (0 no effect, 100 complete control)
Outline: as §1

[5] = test system: foxtail, giant (giant foxtail, Setaria faberii); assay: Test A preemergence, giant foxtail; conditions: Preemergence, 0 to 100 scale (0 no effect, 100 complete control)
Outline: as §1

[6] = test system: pigweed (Amaranthus retroflexus); assay: Test A preemergence, pigweed; conditions: Preemergence, 0 to 100 scale (0 no effect, 100 complete control)
Outline: as §1

[7] = test system: barnyardgrass (Echinochloa crus-galli); assay: Test A postemergence, barnyardgrass; conditions: postemergence, 0 to 100 scale, 0 is no effect, 100 is complete control, approximately 10 days
Outline: as §1

[8] = test system: kochia (Kochia scoparia); assay: Test A postemergence, kochia; conditions: postemergence, 0 to 100 scale, 0 is no effect, 100 is complete control, approximately 10 days
Outline: as §1

[9] = test system: ragweed (common ragweed, Ambrosia elatior); assay: Test A postemergence, ragweed; conditions: postemergence, 0 to 100 scale, 0 is no effect, 100 is complete control, approximately 10 days
Outline: as §1

[10] = test system: ryegrass, Italian (Italian ryegrass, Lolium multiflorum); assay: Test A postemergence, Italian ryegrass; conditions: postemergence, 0 to 100 scale, 0 is no effect, 100 is complete control, approximately 10 days
Outline: as §1

[11] = test system: foxtail, giant (giant foxtail, Setaria faberii); assay: Test A postemergence, giant foxtail; conditions: postemergence, 0 to 100 scale, 0 is no effect, 100 is complete control, approximately 10 days
Outline: as §1

[12] = test system: pigweed (Amaranthus retroflexus); assay: Test A postemergence, pigweed; conditions: postemergence, 0 to 100 scale, 0 is no effect, 100 is complete control, approximately 10 days
Outline: as §1

[13] = test system: wheat (Triticum aestivum); assay: Test A postemergence, wheat; conditions: postemergence, 0 to 100 scale, 0 is no effect, 100 is complete control, approximately 10 days
Outline: as §1

[14] = test system: corn (Zea mays); assay: Test A postemergence, corn; conditions: postemergence, 0 to 100 scale, 0 is no effect, 100 is complete control, approximately 10 days
Outline: as §1

[15] = test system: blackgrass (Alopecurus myosuroides); assay: Test A postemergence, blackgrass; conditions: postemergence, 0 to 100 scale, 0 is no effect, 100 is complete control, approximately 10 days
Outline: as §1

[16] = test system: galium (catchweed bedstraw, Galium aparine); assay: Test A postemergence, galium; conditions: postemergence, 0 to 100 scale, 0 is no effect, 100 is complete control, approximately 10 days
Outline: as §1

[17] = test system: rice (Oryza sativa); assay: Test B flooded paddy test, rice; conditions: 250 g ai/ha, Flood; visual rating after 13 to 15 days; scale 0 to 100, 0 is no effect, 100 is complete control
Outline: (§2)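 Plants grown to the 2-leaf stage; pots flooded to 3 cm above soil and compounds applied directly into the paddy water, depth held throughout. After 13 to 15 days in the greenhouse, injury was rated visually against untreated controls on a 0–100 scale (0 no effect, 100 complete control).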

[18] = test system: sedge, umbrella (small-flower umbrella sedge, Cyperus difformis); assay: Test B flooded paddy test, umbrella sedge; conditions: 250 g ai/ha, Flood; visual rating after 13 to 15 days; scale 0 to 100, 0 is no effect, 100 is complete control
Outline: as §2

[19] = test system: ducksalad (Heteranthera limosa); assay: Test B flooded paddy test, ducksalad; conditions: 250 g ai/ha, Flood; visual rating after 13 to 15 days; scale 0 to 100, 0 is no effect, 100 is complete control
Outline: as §2

[20] = test system: barnyardgrass (Echinochloa crus-galli); assay: Test B flooded paddy test, barnyardgrass; conditions: 250 g ai/ha, Flood; visual rating after 13 to 15 days; scale 0 to 100, 0 is no effect, 100 is complete control
Outline: as §2

Row | SMILES | Plant response rating, Barnyardgrass ([1]; 125 g ai/ha) | Plant response rating, Kochia ([2]; 125 g ai/ha) | Plant response rating, Ragweed ([3]; 125 g ai/ha) | Plant response rating, Ryegrass, Italian ([4]; 125 g ai/ha) | Plant response rating, Foxtail, Giant ([5]; 125 g ai/ha) | Plant response rating, Pigweed ([6]; 125 g ai/ha) | Plant response rating, Barnyardgrass ([7]; 125 g ai/ha) | Plant response rating, Kochia ([8]; 125 g ai/ha) | Plant response rating, Ragweed ([9]; 125 g ai/ha) | Plant response rating, Ryegrass, Italian ([10]; 125 g ai/ha) | Plant response rating, Foxtail, Giant ([11]; 125 g ai/ha) | Plant response rating, Pigweed ([12]; 125 g ai/ha) | Plant response rating, Wheat ([13]; 125 g ai/ha) | Plant response rating, Corn ([14]; 125 g ai/ha) | Plant response rating, Blackgrass ([15]; 125 g ai/ha) | Plant response rating, Galium ([16]; 125 g ai/ha) | Plant response rating, Rice [17] | Plant response rating, Sedge, Umbrella [18] | Plant response rating, Ducksalad [19] | Plant response rating, Barnyardgrass [20] | further results
1 | Fc1cccc(Oc2ncc(Cl)cn2)c1OCCCC(F)(F)F [Compound 27] | 90 | 70 | 0 | 40 | 80 | 90 | 50 | 80 | 0 | 0 | 20 | 50 | 0 | 0 | 30 | 30 | 0 | 70 | 90 | 0 | Plant response rating, Barnyardgrass ([1]; 500 g ai/ha): 100; Plant response rating, Kochia ([2]; 500 g ai/ha): 100; Plant response rating, Ragweed ([3]; 500 g ai/ha): 20; Plant response rating, Ryegrass, Italian ([4]; 500 g ai/ha): 90; Plant response rating, Foxtail, Giant ([5]; 500 g ai/ha): 100; Plant response rating, Pigweed ([6]; 500 g ai/ha): 100; Plant response rating, Barnyardgrass ([7]; 500 g ai/ha): 80; Plant response rating, Kochia ([8]; 500 g ai/ha): 100; Plant response rating, Ragweed ([9]; 500 g ai/ha): 10; Plant response rating, Ryegrass, Italian ([10]; 500 g ai/ha): 30; Plant response rating, Foxtail, Giant ([11]; 500 g ai/ha): 80; Plant response rating, Pigweed ([12]; 500 g ai/ha): 60; Plant response rating, Wheat ([13]; 500 g ai/ha): 10; Plant response rating, Corn ([14]; 500 g ai/ha): 10; Plant response rating, Blackgrass ([15]; 500 g ai/ha): 60; Plant response rating, Galium ([16]; 500 g ai/ha): 90
2 | Fc1cccc(Oc2ncc(Cl)cn2)c1OCCC(F)(F)F [Compound 29] | 70 | 40 | 0 | 10 | 70 | 100 | 20 | 40 | 0 | 0 | 20 | 50 | 0 | 0 | 0 | 20 | 0 | 0 | 50 | 0 | Plant response rating, Barnyardgrass ([1]; 500 g ai/ha): 100; Plant response rating, Kochia ([2]; 500 g ai/ha): 100; Plant response rating, Ragweed ([3]; 500 g ai/ha): 20; Plant response rating, Ryegrass, Italian ([4]; 500 g ai/ha): 70; Plant response rating, Foxtail, Giant ([5]; 500 g ai/ha): 100; Plant response rating, Pigweed ([6]; 500 g ai/ha): 100; Plant response rating, Barnyardgrass ([7]; 500 g ai/ha): 70; Plant response rating, Kochia ([8]; 500 g ai/ha): 80; Plant response rating, Ragweed ([9]; 500 g ai/ha): 10; Plant response rating, Ryegrass, Italian ([10]; 500 g ai/ha): 20; Plant response rating, Foxtail, Giant ([11]; 500 g ai/ha): 80; Plant response rating, Pigweed ([12]; 500 g ai/ha): 100; Plant response rating, Wheat ([13]; 500 g ai/ha): 20; Plant response rating, Corn ([14]; 500 g ai/ha): 10; Plant response rating, Blackgrass ([15]; 500 g ai/ha): 50; Plant response rating, Galium ([16]; 500 g ai/ha): 50
3 | N#Cc1cccc(Oc2ncc(F)cn2)c1OCCCF [Compound 30] | 20 | 90 | 30 | 20 | 30 | 80 | 10 | 10 | 10 | 40 | 0 | 0 | 0 | 0 | 0 | 0 | 0 | 40 | 30 | 0 | Plant response rating, Barnyardgrass ([1]; 31 g ai/ha): 0; Plant response rating, Kochia ([2]; 31 g ai/ha): 90; Plant response rating, Ragweed ([3]; 31 g ai/ha): 20; Plant response rating, Ryegrass, Italian ([4]; 31 g ai/ha): 0; Plant response rating, Foxtail, Giant ([5]; 31 g ai/ha): 10; Plant response rating, Pigweed ([6]; 31 g ai/ha): 50; Plant response rating, Barnyardgrass ([7]; 31 g ai/ha): 0; Plant response rating, Kochia ([8]; 31 g ai/ha): 0; Plant response rating, Ragweed ([9]; 31 g ai/ha): 0; Plant response rating, Ryegrass, Italian ([10]; 31 g ai/ha): 30; Plant response rating, Foxtail, Giant ([11]; 31 g ai/ha): 0; Plant response rating, Pigweed ([12]; 31 g ai/ha): 0; Plant response rating, Wheat ([13]; 31 g ai/ha): 0; Plant response rating, Corn ([14]; 31 g ai/ha): 0; Plant response rating, Blackgrass ([15]; 31 g ai/ha): 0; Plant response rating, Galium ([16]; 31 g ai/ha): 0
4 | FC(F)(F)CCCOc1c(Br)cccc1Oc1ncc(Cl)cn1 [Compound 31] | 60 | 70 | 10 | 40 | 100 | 100 | 70 | 100 | 10 | 50 | 50 | 100 | 10 | 20 | 40 | 90 | 25 | 100 | 75 | 25 | Plant response rating, Barnyardgrass ([1]; 31 g ai/ha): 10; Plant response rating, Kochia ([2]; 31 g ai/ha): 0; Plant response rating, Ragweed ([3]; 31 g ai/ha): 0; Plant response rating, Ryegrass, Italian ([4]; 31 g ai/ha): 0; Plant response rating, Foxtail, Giant ([5]; 31 g ai/ha): 40; Plant response rating, Pigweed ([6]; 31 g ai/ha): 70; Plant response rating, Barnyardgrass ([7]; 31 g ai/ha): 20; Plant response rating, Kochia ([8]; 31 g ai/ha): 90; Plant response rating, Ragweed ([9]; 31 g ai/ha): 0; Plant response rating, Ryegrass, Italian ([10]; 31 g ai/ha): 10; Plant response rating, Foxtail, Giant ([11]; 31 g ai/ha): 20; Plant response rating, Pigweed ([12]; 31 g ai/ha): 80; Plant response rating, Wheat ([13]; 31 g ai/ha): 0; Plant response rating, Corn ([14]; 31 g ai/ha): 10; Plant response rating, Blackgrass ([15]; 31 g ai/ha): 20; Plant response rating, Galium ([16]; 31 g ai/ha): 40
